Laboratory results: US20240398822A1, “METHODS AND COMPOSITIONS FOR TREATING AND MANAGING ALZHEIMER'S DISEASE” (Pharmatrophix, Inc., priority 2021, published 2024)

How the values were obtained:
[1] = Phase I (1b) cerebrospinal fluid (CSF) levels; format: in vivo; settings: human, day 10, 600 mg b.i.d. oral, 8 subjects, read-out: Cmax in cerebrospinal fluid (CSF), arithmetic mean
Aβ42, Aβ40 = assay: Phase IIa CSF AD core biomarkers Aβ42 and Aβ40; format: in vivo, human
Source text: (§1) CSF samples were obtained at screening Visit and final Visit via lumbar puncture to determine levels of tau, p-tau, Aβ40, Aβ42 and AChE activity as an initial set of CSF biomarkers. Aliquots of CSF were made available for emerging CSF biomarker methods such as measurement of additional biomarkers including neurofilaments light chain, neurogranin, SNAP-25, synaptotagmin, YKL-40, TREM2, tau oligomers and for measurement of drug level in selected patients based on the time period between last dose of drug and CSF sampling (FIG. 25 and FIG. 58).
(§2) Baseline CSF samples are obtained prior to administration via lumbar puncture. These samples are used to determine levels of tau, p-tau, Aβ40, Aβ42, AChE, neurofilament light chain, SNAP-25, synaptotagmin-1, neurogranin, sTREM, and YKL-40. Aliquots of CSF are also made available for emerging CSF biomarker methods such as measurement of tau oligomers and for measurement of drug level in selected patients based on time period between last dose of the salt of Formula (II) and CSF sampling. […] Many of these biomarkers can also be measured in blood or plasma. The change in values over the time period from pre-treatment to post-treatment are of particular importance. […] Absolute levels at single time points of neurofilament light chain, SNAP-25, synaptotagmin-1, neurogranin, sTREM, and YKL-40 in CSF or blood or plasma are of less value given differences in assay techniques and wide variation in absolute levels within normal subjects and within and across AD subjects. In contrast, absolute levels of Aβ42 and 40 at baseline are useful biomarkers indicating the presence of amyloid pathology as low levels of Aβ42 and 40 at a given time point are consistent with amyloid pathology.

tau = assay: Phase IIa CSF total tau; format: in vivo, human
Source text: as §1, §2

SNAP-25 = assay: Phase IIa CSF pre-synaptic biomarker SNAP-25; format: in vivo, human
Source text: as §1, §2

sTREM2 = assay: Phase IIa CSF glial biomarker sTREM2; format: in vivo, human
Source text: as §1
(§3) Baseline CSF samples are obtained prior to administration via lumbar puncture. These samples are used to determine levels of tau, p-tau, Aβ40, Aβ42, AChE, neurofilament light chain, SNAP-25, synaptotagmin-1, neurogranin, sTREM, and YKL-40. Aliquots of CSF are also made available for emerging CSF biomarker methods such as measurement of tau oligomers and for measurement of drug level in selected patients based on time period between last dose of the salt of Formula (II) and CSF sampling. […] Many of these biomarkers can also be measured in blood or plasma. The change in values over the time period from pre-treatment to post-treatment are of particular importance. […]

CSF biomarkers = assay: Phase IIa CSF biomarkers, whole panel; format: in vivo, human
Source text: as §1, §3

[2] = Phase 1 SAD/MAD pharmacokinetics; format: in vivo; settings: in vivo
Source text: The phase 1 study was placebo controlled and double blinded and included 52 subjects in SAD studies and 20 subjects in MAD studies.

[3] = Estimating human brain exposure to drug; format: in vivo; settings: oral dosing at 200 mg bid and 400 mg bid
Procedure: Key inclusion criteria for the 2a trial include a diagnosis of mild-moderate AD by McKhann criteria and a CSF measure of Ab 42/40 ratio under 0.089 OR a Ab 42 level <550 ng/L (FIG. 28). These criteria are discussed in Schindler et al. 2018.

[4] = test system: healthy elderly volunteers; assay: Phase I (1b) safety and tolerability, 600 mg b.i.d. for 10 days
Procedure: Trial specific stopping rules were set to protect the trial subjects. Dosing would have been stopped for all subjects and the trial terminated if any of the stopping rules had occurred.
15 healthy adults were screened within three weeks prior to the baseline visit. Following 5 screening failures, 10 healthy adults, 5 aged 18-64 years and 5 aged 65-84 years were enrolled.
A phase 1b studied was conducted in 10 elderly normal subjects for the purpose of obtaining plasma and CSF coordinated drug levels and to further assess safety at a dose of 600 mg bid over a 10-day period. The study was double-blinded and placebo controlled with 8 subjects receiving drug.

[5] = annual percent change (APC), 6-month trial period
[6] = 600 mg b.i.d. oral, 10 days, 8 subjects
[7] = non-serious AE, 600 mg b.i.d. oral, 10 days

For `CC[C@H](C)[C@H](N)C(=O)NCCN1CCOCC1` [LM11A-31-BHS, Tris[(2S,3S)-2-amino-3-methyl-N-(2-morpholinoethyl)pentanamide] tetra(monohydrogensulfate), monosulfate], the Cmax [1] was 56 ng/mL, the “CSF Ab 42 change in the drug group” value (Aβ42, Aβ40; combined drug group, 26 weeks, p=0.003) was “went down by a significant amount” and the “CSF Ab 42, difference between placebo and drug” value (Aβ42, Aβ40; combined drug group, p=0.03) was “significant”. For the same compound, the “effect on levels of Aβ42 and 40” value (Aβ42, Aβ40; daily treatment, CSF) was “ability to lower levels of Aβ42 and 40”, the “CSF total tau, drug dose analysis” value (tau; 200 mg bid or 400 mg bid versus placebo) was “trends for lowering of total tau reduction, especially at the 400 mg dose” and the “drug effect in slowing or inhibiting the CSF tau increase, younger (<72 years) versus older (>=72 years)” value (tau; [5]) was “greater than that found in the older group”. For the same compound, the “effect compared to placebo in decreasing the elevation of CSF tau” value (tau; combined drug group, 6 month treatment period, p=0.06) was “near-significant effect”, the “increase of CSF tau levels in the drug group” value (tau; combined drug group, 6 months, p=0.2 (placebo increase p=0.003)) was “no longer detected at a significant level” and the “CSF SNAP-25, drug dose analysis” value (SNAP-25; 200 and 400 mg doses, post hoc Dunn's test does not reach significance) was “significant main effect of drug dose”. For the same compound, the “drug effect in slowing or inhibiting the SNAP-25 increase, younger (<72 years) versus older (>=72 years)” value (SNAP-25; [5]) was “greater than that found in the older group”, the “CSF SNAP-25 change in the drug group” value (SNAP-25; combined drug group, 6 months, drug effect p=0.01) was “no increase was detected” and the “CSF sTREM2, drug dose analysis” value (sTREM2; 200 and 400 mg doses) was “nominal reduction at the 200 and 400 mg doses”. For the same compound, the “CSF sTREM2, drug effect” value (sTREM2; combined drug group, 6-month period) was “no drug effect was detected”, the “drug effect across all CSF biomarkers by age group” value (CSF biomarkers; <72 years versus >=72 years) was “the drug effect was in general greater in the younger versus older group” and the “effect on biomarkers indicating neuronal degeneration, gliosis and neuro-inflammation” value (CSF biomarkers; CSF, pre-treatment to post-treatment) was “ability to slow progression of increase of biomarkers indicating neuronal degeneration, gliosis and neuro-inflammation”. For the same compound, the food effect ([2]; human) was “fed subjects having a higher LM11A-31 parent exposure than fasted subjects”, the “time to reach steady state upon multiple dosing” value ([2]; human) was “approximately 5 days post dose” and the “gender difference in exposure” value [2] was “female subjects having a greater exposure than males”. For the same compound, the “pharmacokinetics after single oral doses” value ([2]; po) was “linear pharmacokinetics”, the “estimated human brain levels of drug” value [3] was “in a range found to engage target mechanisms and derive therapeutic benefit in mouse models” and the “safety and tolerability in repeated dose schedule” value ([4]; 600 mg BID up to ten days of treatment) was “support the safety and tolerability”. For the same compound, the “number of deaths (all causes)” value ([4]; 600 mg b.i.d. oral, 10 days) was 0, the “number of deaths resulting from adverse events” value ([4]; 600 mg b.i.d. oral, 10 days) was 0 and the “serious adverse event Headache, occurrences causally related to treatment/all” value ([4]; 600 mg b.i.d. oral, 10 days) was 0/1. For the same compound, the “drug related serious adverse events” value [4, 6] was 0 drug related adverse events, the “mild drug related adverse events” value [4, 6] was 4 drug related adverse events and the “moderate drug related adverse events” value [4, 6] was 0 drug related adverse events. The “severe drug related adverse events” value [4, 6] was 0 drug related adverse events, the “Abdominal pain, occurrences (all)” value [4, 7] was 1 and the “Arthralgia, occurrences (all)” value [4, 7] was 3. For the same compound, the “Diarrhea, occurrences (all)” value [4, 7] was 1, the “Dry eye, occurrences (all)” value [4, 7] was 0 and the “Flatulence, occurrences (all)” value [4, 7] was 3. For the same compound, the “Gamma-glutamyltransferase increased, occurrences (all)” value [4, 7] was 1, the “Headache, occurrences (all)” value [4, 7] was 7 and the “Oropharyngeal pain, occurrences (all)” value [4, 7] was 0. The “Polyuria, occurrences (all)” value [4, 7] was 1, the “Presyncope, occurrences (all)” value [4, 7] was 0 and the “alterations in physical examination, vital signs and ECG recordings” value ([4]; phase 1b, 600 mg bid, 10-day period, 8 subjects receiving drug) was “no clinically relevant alterations”. For the same compound, the “changes in haematological and biochemistry parameters” value ([4]; phase 1b, 600 mg bid, 10 days, neither clinical relevance nor relationship with the study drug) was “Minimal changes”.
